Assay results published in PubChem BioAssay (NCI).
Several values for one entry are separate records, joined by “and”; a condition that tells them apart may be missing. Equal values may be shown once.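 Interpolation was linear, between the two tested concentrations surrounding the appropriate level; five concentrations were tested over 48 hours in 96-well plates. At the GI50, growth is halved. TGI is the concentration that stops growth completely.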

What was measured:
Assay in all cases: growth of human tumour cells (NCI), 48 h
[1] = test system: MALME-3M melanoma
[2] = test system: MDA-MB-435
[3] = test system: MDA-N
[4] = test system: SK-MEL-28 melanoma
[5] = test system: SK-OV-3 ovarian
[6] = test system: SNB-19 CNS
[7] = test system: SNB-75 CNS
[8] = test system: U251 CNS
[9] = test system: UACC-257 melanoma
[10] = test system: HL-60(TB) leukemia

SMILES | TGI [1] | TGI [2] | TGI [3] | TGI [4] | TGI [5] | TGI [6] | TGI [7] | TGI [8] | TGI [9] | TGI [10] | GI50 [10] | GI50 [1] | GI50 [2] | GI50 [4] | GI50 [6] | GI50 [7] | GI50 [8] | GI50 [9] | GI50 [3] | GI50 [5]
CC(=O)OC1C(C)OC(OC2C[C@](O)(C(C)=O)Cc3c(O)c4c(c(O)c32)C(=O)c2ccccc2C4=O)C(F)C1OC(C)=O (some centres undefined) | 4.08 µM | 23.5 µM | > 100 µM | > 31.3 µM | 22.1 µM | 4.99 µM | 4.33 µM | 3.65 µM | 9.02 µM |  |  |  |  |  |  |  |  |  |  | 
Cc1c(N(Cc2ccccc2)Cc2ccccc2)nc(S(C)(=O)=O)nc1S(C)(=O)=O | 17.6 µM |  |  |  | 27.7 µM | 26.1 µM |  | 6.64 µM | 3.76 µM | 4.28 µM |  |  |  |  |  |  |  |  |  | 
N=c1sc(N2CCOCC2)nn1CC(=O)c1ccccc1 | > 100 µM | > 100 µM | > 100 µM | > 100 µM | > 100 µM | > 100 µM | > 100 µM | > 100 µM | > 100 µM | > 100 µM |  |  |  |  |  |  |  |  |  | 
O=C1c2sccc2C(=O)c2c(CO)csc21 | 6.71 µM | 4.62 µM | 3.16 µM | 38.3 µM | 28.2 µM | 20.8 µM | 15.1 µM | 23.2 µM | 5.24 µM | 6.08 µM |  |  |  |  |  |  |  |  |  | 
O=C(Cn1c(-c2ccccc2)cc2ccccc21)N1CCOCC1 | > 100 µM | > 100 µM | > 100 µM | > 100 µM | > 100 µM | > 100 µM |  | > 100 µM | > 100 µM | > 100 µM |  |  |  |  |  |  |  |  |  | 
O=C(C[N+]1(c2ccccc2)CCOCC1)c1ccccc1 | > 100 µM | > 100 µM | > 100 µM | 0.0908 µM |  | > 100 µM | > 100 µM | > 100 µM | > 100 µM |  |  |  |  |  |  |  |  |  |  | 
CCCCCCCCCCCC1=C(O)C(=O)C=C(O)C1=O | 16.5 µM |  |  | 37.5 µM | 21.2 µM | 25.7 µM | 17.7 µM | 22.1 µM | 16.7 µM | 12.6 µM |  |  |  |  |  |  |  |  |  | 
NS(=O)(=O)C1CCCCC1C(=O)NNC(=O)C(=O)Nc1nc(=S)[nH][nH]1 (centres undefined) |  |  |  | > 100 µM | > 100 µM | > 100 µM | > 100 µM | > 100 µM | > 100 µM | > 100 µM |  |  |  |  |  |  |  |  |  | 
O=[N+]([O-])c1cccc2c1[nH]c1c(-c3ccccc3)nccc12 | 6.43 µM |  |  | 21.9 µM | 7.75 µM | > 100 µM | 7.59 µM | > 30.3 µM | 6.29 µM | 4.35 µM |  |  |  |  |  |  |  |  |  | 
Nc1nc(Nc2cc(F)c(Cl)c(F)c2)cc(=O)[nH]1 | > 100 µM | > 100 µM |  | > 100 µM | > 100 µM | > 100 µM | 97.9 µM | > 100 µM | > 100 µM | > 100 µM |  |  |  |  |  |  |  |  |  | 
COc1ccc(-c2cc(-c3ccc(Nc4ccnc5cc(C(F)(F)F)ccc45)cc3)nc(N)c2C#N)c2ccccc12 | > 100 µM | > 100 µM |  |  | > 100 µM | > 100 µM | > 100 µM | > 100 µM |  | > 100 µM |  |  |  |  |  |  |  |  |  | 
COc1ccc(Sc2ccccc2[N+](=O)[O-])cc1 | > 100 µM |  |  | 46.4 µM | > 100 µM | > 100 µM | 19.7 µM | 41.3 µM | > 100 µM | 20.8 µM |  |  |  |  |  |  |  |  |  | 
CCCCN1/C(=N/Nc2n[nH]c(=O)c3ccccc23)SCC1c1ccc(Cl)cc1 (centres undefined) | 62 µM | 31.9 µM |  | 47.1 µM | > 100 µM | 42 µM | 64 µM | 21.2 µM | 45.6 µM | > 100 µM |  |  |  |  |  |  |  |  |  | 
CC1SCCc2nc3ccccc3n21 (centres undefined) |  | > 100 µM | > 100 µM | > 100 µM | > 100 µM | > 100 µM | > 100 µM | > 100 µM | > 100 µM | > 100 µM |  |  |  |  |  |  |  |  |  | 
Cc1cc(N(CCCl)CCCl)ccc1/C=N\NC(=O)c1cccnc1 | 83.7 µM | > 100 µM |  | > 100 µM |  | > 100 µM | > 100 µM | > 100 µM | 34.9 µM | 26.4 µM | 4.3 µM | 26.2 µM | 24.6 µM | 43.4 µM | > 100 µM | 25.5 µM | 21.6 µM | 6.96 µM |  | 
COC1=C(C)C(=O)C2=C(C1=O)C1C3CC4=C(C(=O)C(OC)=C(C)C4=O)C(CNC(=O)C(C)=O)N3C(C#N)C(C2)N1C (centres undefined) |  | 0.00124 µM and 0.00553 µM | 0.026 µM |  | 0.417 µM and 1.55 µM | 1.45 µM and 0.958 µM |  |  |  |  |  |  | 0.00034 µM | 0.000169 µM |  |  |  | 5.76e-06 µM | 0.00351 µM | 0.00656 µM and 0.0382 µM
Nc1nc(N)c2ncn(Cc3ccccc3)c2n1 | > 100 µM | > 100 µM | > 100 µM | > 100 µM | > 100 µM | > 100 µM | 0.937 µM | > 100 µM | > 100 µM |  |  |  |  |  |  |  |  |  |  | 
COC(=O)C1CCC(=S)N1C(C)=O (centres undefined) | > 100 µM | > 100 µM | > 100 µM | > 100 µM | > 100 µM | > 100 µM | > 100 µM | > 100 µM | > 100 µM |  |  |  |  |  |  |  |  |  |  | 
O=C(NCc1ccc(Cl)c(Cl)c1)c1nc2ccccc2nc1NCc1ccc(Cl)c(Cl)c1 |  | > 100 µM | > 100 µM | > 100 µM |  | > 100 µM | > 100 µM | > 100 µM | > 100 µM | > 100 µM |  |  |  |  |  |  |  |  |  | 
O=C(Nc1nc2ccc([N+](=O)[O-])cc2s1)c1cc([N+](=O)[O-])ccc1Cl | 10.4 µM | 16.4 µM | 5.04 µM |  | 13.6 µM |  | 9.61 µM | 12.1 µM | 19.2 µM |  |  |  |  |  |  |  |  |  |  | 
CCOC(=O)N/N=C(/N)Cc1ccc(Cl)cc1 |  | > 100 µM | > 100 µM | > 100 µM | > 100 µM | > 100 µM | > 100 µM | > 100 µM | > 100 µM |  |  |  |  |  |  |  |  |  |  | 
CC1=C(C(=O)OC(C)(C)C)C(c2ccc([N+](=O)[O-])cc2)C(C(=O)OC(C)(C)C)=C(C)N1 |  | 57.9 µM | 48.6 µM | 43.4 µM | 73.3 µM | 75.8 µM | 61.2 µM | 39.3 µM | 40.6 µM |  |  |  |  |  |  |  |  |  |  | 
Cc1ccc(C)c(C(=O)CC2OC(O)C(Cl)C2Cl)c1 (centres undefined) | > 100 µM |  |  | > 100 µM | > 100 µM | > 100 µM | > 100 µM | > 100 µM | > 100 µM | 95.7 µM |  |  |  |  |  |  |  |  |  | 
